Tests used:
[1] = tested on: ob/ob mice; test: Anti-obesity test: lipid metabolism-related materials and glucose in blood of ob/ob mice; format: in vivo; settings: 28 days; for GLU (glucose) / HDL (HDL-cholesterol) / LDL (LDL-cholesterol) / NEFA (free fatty acid) / TG (triglyceride): 100 mg/kg oral twice a day, fasted 16 hours, plasma
Experimental: (§1) In order to evaluate the anti-obesity activity of the inventive compound, B6.V-Lepob/J mice (laboratory animal team of Korea Research Institute of Chemical Technology) were used for tests and lean mice as a control. Ob/ob mice are model animals for insulin-independent diabetes, suitable for studying the effect of an anti-obesity drug.
(§2) 42 mice weighing 38.6±1.4 g were selected randomly from a pool of ob/ob mice (7-9 weeks old), and divided into groups of 7 mice each. The test was carried out at a constant temperature (24±0.5° C.) and humidity (55±5%) using ventilation system (10-12 times/hour), under a specific pathogen free (SPF) condition created in an automatic on-off cycle of 12 hours.
(§3) The groups were divided to a control group treated only with an excipient, a positive control group treated with fenofibrate, and test groups treated with each of the compounds of Examples 5, 62 and 65, at dosage 100 mg/10 ml/kg body weight. Each of the test and control compounds was diluted with 0.5% CMC to a concentration to match the above dosage, and administered orally using a syringe into the stomach twice a day (9:00 and 18:00) for a period of 4 weeks, and the following characteristics were measured.
3) Measurement of Lipid Metabolism-Related Materials and Insulin Concentration in Blood
28 days after the administration, experimental mice were fasted for 16 hours, and the concentrations of lipid metabolism-related materials such as triglyceride, free fatty acid and cholesterol, and insulin in blood were measured. Specifically, a blood sample was collected from the ocular venous plexus of each mouse and centrifuged to separate plasma. The glucose (GLU), HDL-cholesterol (HDL), LDL-cholesterol (LDL), triglyceride (TG) and free fatty acid (NEFA) levels were measured by enzymatic assay using 2 kinds of Selectra (Vital Lab), an automatic biochemical analyzer, and the insulin concentration was measured by ELISA using an insulin detection kit (Shibayagi).

[2] = tested on: ob/ob mice; test: Anti-obesity test: feed intake in ob/ob mice; format: in vivo; settings: 100 mg/kg oral twice a day, first week of the test, P<0.005, FIG. 1a
Experimental: as §1, §2, §3
1) General Symptoms and Observation of Dead Animal
The conditions, behavioral changes, addictive symptoms and the death rate were observed constantly during the test period.

[3] = tested on: ob/ob mice; test: Anti-obesity test: dissection, fat weights in ob/ob mice; format: in vivo; settings: ob/ob mice after completing all tests; for adiposity index (fat weight/(body weight—fat weight)): FIG. 4b; for total fat weight: P<0.01, P<0.005, FIG. 4a
Experimental: as §1, §2, §3
After completing all tests, each of the mice in test treated with the compounds of Examples 5 and 62 and the positive control group treated with fenofibrate was sacrificed, the whole blood, liver, muscle and white adipose tissue thereof were extracted. White adipose tissued was divided into visceral fat and subcutaneous fat, and the amounts of the total fats and liver tissue were weighed separately.

[4] = tested on: ob/ob mice; test: Anti-obesity test: body weight measurement in ob/ob mice; format: in vivo; settings: 100 mg/kg oral twice a day
Experimental: as §1, §2, §3
2) Body Weight Measurement
The average body weight of each group was measured every 3 days after the administration, and the changes in the average body weight and body weight gain (measured body weight—initial body weight) were analyzed.

[5] = tested on: ob/ob mice; test: Oral glucose tolerance test (OGTT) in ob/ob mice; format: in vivo; settings: for total changes in the glucose concentration represented by AUC compared to the control group: 0-120 min, P<0.05, P<0.005 and P<0.01, FIG. 3b; for glucose concentration during the fast compared to the control group: ob/ob mice, 28 days, fasted 16 hours, P<0.05, FIG. 3c
Experimental: as §1, §2, §3
4) Oral Glucose Tolerance Test (OGTT)
28 days after the administration, each of the experimental mice was fasted for 16 hours, 2 g/kg of glucose was administered thereto, a blood sample was collected from the ocular venous plexus thereof at 0, 15, 30, 60 and 120 min from the administration, and the glucose concentration and AUC (area under the curve, Skrumsager et al., J Clin Pharmacol. 43, 1244-1256, 2003) were determined.

[6] = target: T1, human PPAR α (Homo sapiens, UniProt Q07869); test: Exogeneous PPAR α agonist assay (GAL4 DNA binding domain/PPAR α ligand binding domain, luciferase) in 293T cells; format: cell-based; set-up: scale not given here; settings: 25 μM compound, 48 hours, luciferase activity increase relative to the control
T1 construct: expressed in transfected cells; host or cells: HepG2 (ATCC HB-8065) or 293T cells (ATCC CRL-1573)
T1 sequence (Q07869 239-466 limits assumed): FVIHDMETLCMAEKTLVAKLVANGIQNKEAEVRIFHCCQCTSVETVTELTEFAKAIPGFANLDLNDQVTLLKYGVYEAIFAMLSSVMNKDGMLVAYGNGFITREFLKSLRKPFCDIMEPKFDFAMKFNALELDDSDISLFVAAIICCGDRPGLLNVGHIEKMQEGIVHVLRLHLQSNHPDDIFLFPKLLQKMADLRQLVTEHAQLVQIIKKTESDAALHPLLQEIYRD
How it was run: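 HepG2 or 293T cells (2×10^4/well) lipofectamine-transfected 3 hours with PPAR α, UAS firefly-luciferase and Renilla-luciferase constructs. Compounds then added at 25 μM final and incubated 48 hours at 37° C. PPAR α activation measured as dual firefly/Renilla luciferase luminescence.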

Structure (SMILES) | GLU (glucose) [1] [mg/dL] | HDL (HDL-cholesterol) [1] [mg/dL] | LDL (LDL-cholesterol) [1] [mg/dL] | NEFA (free fatty acid) [1] [UEq/l] | TG (triglyceride) [1] [mg/dL] | GLU concentration compared to the control or positive control group [1] | daily feed intake compared to the control group [2] | weight of subcutaneous fat [3] | weight of visceral fat [3] | adiposity index (fat weight/(body weight—fat weight)) [3] | total fat weight [3] | total changes in the glucose concentration represented by AUC compared to the control group ([5]; 2 g/kg glucose) | glucose concentration during the fast compared to the control group [5] | Activity at 25 μM Step 1 293T cell [6] | also measured
Cc1ccc(-c2nc(CCOc3cccc(CN(CC(=O)O)S(=O)(=O)N(C)C)c3)c(C)o2)cc1 [Example 62, [N—(N,N-dimethylamino)sulfonyl-N-[3-[2-[2-(4-methylphenyl)-5-methyloxazol-4-yl]ethoxy]benzyl]amino]acetic acid] | 190.4 ± 77.6 | 381.8 ± 40.1 | 37.8 ± 5.2 | 976 ± 238 | 37.9 ± 6.6 | much lower | significantly reduced | reduced | reduced | reduced | low | much lower | significantly low | 2 | HDL concentration [1]: high; triglyceride concentration compared to a control ([1]; P<0.05): significantly lower; body weight effect compared to the positive control group treated with fenofibrate [4]: improved effect; change in the body weight gain compared to the control group ([4]; at day 7 from the administration, P<0.01): evidently lower; change in the average body weight compared to the control group ([4]; at day 10 from the administration, P<0.01, P<0.005): markedly reduced; glucose concentration at 30 and 60 min after the glucose administration compared to the control group ([5]; 2 g/kg glucose, P<0.01, P<0.05, FIG. 3a): significantly low
Cc1oc(-c2ccc(C(F)(F)F)cc2)nc1COc1cccc(CN(CC(=O)O)S(=O)(=O)N(C)C)c1 [Example 5, [N—(N,N-dimethylamino)sulfonyl-N-[3-[[2-(4-trifluoromethylphenyl)-5-methyloxazol-4-yl]methoxy]benzyl]amino]acetic acid] | 218.1 ± 125.5 | 292.1 ± 24.7 | 24.3 ± 4.3 | 880 ± 273 | 47.3 ± 12.4 | much lower | significantly reduced | reduced | reduced | reduced | low | much lower | significantly low | 2 | LDL concentration ([1]; P<0.05): low

Source: patent US20070254882A1, “Sulfamide Derivatives and Pharmaceutical Composition for Upregulation of Lipid Metabolism Comprising Same” (CRYSTAL GENOMICS, INC., priority 2004, published 2007)
